Experimental data: patent EP2131651B1 (Sarentis Therapeutics, Inc., priority 2007, dated 2013)
Square brackets hold non-standard residues; d marks the D form. Peptide text beside a SMILES is read from it. Ala(indol-4-yl) = N[C@@H](Cc1cccc2[nH]ccc12)C(=O)O; NMeR = CN[C@@H](CCCNC(=N)N)C(=O)O; Tle = CC(C)(C)[C@H](N)C(=O)O; Dab = NCC[C@H](N)C(=O)O

Columns and labels:
[1] = tested on: intact rabbit cornea; assay: In vitro cytotoxicity study, percentage of living cells; type: cell-based; conditions: for death of corneal cells: FIGURE 10A; for corneal cells died, compared to untreated cells: 0.1, 0.25 and 0.5 mg/ml, 24 hour period, FIGURE 10B
Protocol: In vitro cytotoxicity studies were performed in intact rabbit cornea. Proparacaine (0.5 mM, 1 mM, 5 mM, and 10 mM), tetracaine (0.5 mM, 1 mM, 5 mM, and 10 mM), NT71 (0.1 mg/ml (0.13 mM), 0.25 mg/ml (0.32 mM), and 0.5 mg/ml (0.63 mM)), NT72 (0.1 mg/ml (0.15 mM), 0.25 mg/ml (0.38 mM), and 0.5 mg/ml (0.76 mM)), and 70% MeOH were added to intact rabbit corneas. The percentage of living cells was determined over a 24 hour period using light microscopy and fluorescence. As apparent from FIGURE 10A, tetracaine was cytotoxic to the corneal cells at concentrations as low as 0.5 mM, resulting in the death of about half of the corneal cells observed.

[2] = tested on: primary rabbit corneal epithelial cells; assay: In vitro scratch assay, cell migration and scratch closure; type: cell-based; conditions: 0.1 mg/ml and 0.5 mg/ml; FIGURES 7-9
Protocol: The limbus was removed from both eyes of anesthetized rabbits and dissected to include 1.0 to 1.5 mm peripheral cornea and 1.0 to 1.5 mm beyond the anatomical limbus. Each limbus was divided into four small segments. Two segments were used for each 60 mm square plate.
Cultured rabbit corneal epithelial cells were utilized to measure the closure of a scratch made in a confluent epithelial monolayer in the presence of varying doses of the test compounds (0.1 mg/ml to 10 mg/ml). Uniform scratches were made in confluent monolayers of primary rabbit corneal epithelial cells ("in vitro scratch assay").
Individual cell migration assays were performed in the presence of the test compounds and compared with standard doses of tetracaine and proparacaine. Movement of cells from the edge of the scratch (wound) toward the middle of the scratch (wound) were measured over 24 hours. […] Cells in which NT71 and NT72 were added migrated at least 40 µm, alternatively at least 50 µm, alternatively at least 60 µm, alternatively at least 70 µm over 24 hours.
There was very little closure of the wounds in which proparacaine and tetracaine were added. […] In contrast, control cells substantially closed the defect within 24 hours.

[3] = tested on: rabbit cornea; assay: In vivo superficial keratotomy, administration every 4 hours for 5 days; set-up: species or system rabbits
Description: Anesthetized rabbits were placed under an operating microscope, a sterile lid speculum placed in the right eye, and a 6.5 mm trephine used to make a partial thickness epithelial cut centered on the pupil. A sterile beaver blade was used to remove the epithelium within the area of demarcation. A single drop of moxifloxacin 0.1% was instilled at the end of the procedure. The speculum was removed and the animal allowed to recover from the systemic anesthesia. The topical agent under investigation was placed in the eye every 4 hours for 5 days. […] The control animals underwent the same surgical procedure. At the end of the procedure, 0.5% proparacaine or vehicle was instilled in the eye every 4 hours.
Fluorescein (1%) was instilled into the eye at times 0, 1, 2, 6, 12, 36, 48, 72, 96, and 120 hours after the procedure and the size of the epithelial defect measured via slit lamp photography. The animals were scored for degree of blinking, tearing, conjunctival injection, anterior chamber inflammation, and intraocular pressure.

[4] = tested on: rabbit cornea; assay: Wound healing after excimer laser keratectomy; type: in vivo, rabbits
Protocol: Anesthetized rabbits were placed under an operating microscope, a sterile lid speculum placed in the right eye, and a 6.5 mm excimer laser ablation of 75 microns centered on the pupil was made using a Ladarvision 4000 excimer laser. A single drop of moxifloxacin 0.1 % was used at the end of the procedure. SAR001 (NT71, 0.1% w/w), SAR002 (NT72, 0.1 % w/w), or NT69 was instilled at the end of the procedure and repeated at 4 hour intervals. Control animals underwent the same surgical procedure. Standard doses of tetracaine (0.5% w/w) or proparacaine (not shown) were instilled at the end of the procedure and at 4 hour intervals thereafter.
Fluorescein (1%) was instilled into the right eye at times 0, 1, 2, 6, 12, 36, 48, 72, 96, and 120 hours after the procedure and the size of the epithelial defect measured via slit lamp photography. Degree of blinking, tearing, conjunctival injection, anterior chamber inflammation, and intraocular pressure were evaluated.

[5] = tested on: rabbit cornea; assay: In vivo superficial keratotomy, administration every 2 hours for 36 hours; set-up: species or system rabbits
Protocol: In vivo superficial keratotomy experiments were performed on rabbits to access healing effects in an animal model.
Starting with equivalent circular wounds of 6.5 mm diameter (33 mm^2), after 36 hrs of administration every 2 hours of 1 mg/mL NT71(SAR001), NT72 (SAR002), tetracaine or saline (control), the persistent epithelial defect (wound) size was: • Control (saline) 4 mm^2 • Tetracaine 14.4 mm^2 • SAR001 2.8 mm^2 • SAR002 4.8 mm^2

## CCCOc1ccc(C(=O)OCCN(CC)CC)cc1N [proparacaine]
[1]; 5 mM
  death of corneal cells: almost all
[2]
  closure of scratch: did not close
[3]; at 96-120 hours, 0.5% proparacaine every 4 hours
  animals with incomplete disappearance of the defect: 40%
[3]; every 4 hours for 5 days, neurotensin analogs 0.6 mg/ml, proparacaine 0.5%
  time to disappearance of epithelial defect: 96 to 120 h

## CCCCNc1ccc(C(=O)OCCN(C)C)cc1 [tetracaine]
[4]; instilled at 4 hour intervals, SAR001, SAR002 0.1% w/w, tetracaine 0.5% w/w, FIGURE 11
  time to disappearance of epithelial defect: 96 to 110 h
[4]; tetracaine 0.5% w/w at 4 hour intervals
  animals with incomplete disappearance of the defect: 50%
[5]; after 36 hrs, 1 mg/mL every 2 hours, starting wound 33 mm^2
  persistent epithelial defect (wound) size: 14.4 mm^2
[5]; after 48 hours
  state of wound: residual epithelial defect was still present
[1]; 0.5 mM
  death of corneal cells: about half
[1]; 1 mM
  death of corneal cells: almost all
[2]
  closure of scratch: did not close
  rate of scratch closure as compared to control: greatest delay in monolayer closure

## CC(C)C[C@H](NC(=O)[C@@H](NC(=O)[C@H](Cc1cccc2[nH]ccc12)NC(=O)[C@@H]1CCCN1C(=O)[C@H](N)CCCCN)C(C)(C)C)C(=O)O [NT72] (H-[dK]P[Ala(indol-4-yl)][Tle]L-OH)
[1]
  corneal cells died, compared to untreated cells: < 20%

## CN[C@@H](CCCNC(=N)N)C(=O)N[C@@H](CCN)C(=O)N1CCC[C@H]1C(=O)N[C@@H](Cc1cccc2[nH]ccc12)C(=O)N[C@H](C(=O)N[C@@H](CC(C)C)C(=O)O)C(C)(C)C [NT71] (H-[NMeR][Dab]P[Ala(indol-4-yl)][Tle]L-OH)
[1]
  corneal cells died, compared to untreated cells: < 20%
